As a reminder, the IC50 is the concentration that inhibits the measured activity by half. By Ki is commonly meant a dissociation constant, usually derived from enzyme kinetics or from competition with a known ligand.

In one experiment the test system is MAO-B. The conditions noted are these: literature values (ref. 45), cited from earlier work; for IC50: read-out: IC50 of MAO-B inhibition; for Ki: read-out: Ki of MAO-B inhibition.
Another experiment deals with neurons. Put plainly: Neuroprotection against glutamate-induced apoptosis of cultured neurons (DAPI staining). It is filed as cell-based. The conditions noted are these: glutamate 100 μM plus 10 μM glycine, 30 min pre-incubation, apoptosis after 24 h. As to the method: The exposure of neurons to glutamate was carried according to a slightly modified method (50): culture medium was removed and neurons were washed once with prewarmed 37° C. buffered Hanks' solution (5.26 mM KCl, 0.43 mM KH2H2PO4, 132.4 mM NaCl, 4.09 mM NaHCO3, 0.33 mM Na2HPO4, 20 mM glucose, 2 mM CaCl2, and 20 mM HEPES, pH 7.4) and pre-incubated in the absence or presence of several concentrations of AFA extract (1-50 nM), PC (10-1000 nM), PCB (10-1000 nM) and MAA (1-10 μM) in prewarmed 37° C. buffered Hanks' solution. After 30 min of pre-incubation, L-glutamate was added from concentrated solutions to the final concentration indicated 100 μM plus 10 μM glycine. […]
Apoptosis was assessed by staining the nuclei of cells with DAPI (50), a membrane-permeable fluorescent dye that binds DNA and allows quantification of apoptotic neurons, i.e., neurons displaying fragmented or condensed nuclei. […] Cells were scored for chromatin condensation by fluorescence microscopy, using a fluorescein filter (330-380 excitation; 30× magnification). Total and apoptotic nuclei were counted. In all cases, approximately 600-1,000 cells were counted per well by an operator blind to the protocol design. Measurements from individual cultures were performed in duplicate and results are expressed as the mean S.E.M. values for the number of culture preparations indicated. […]

For `Oc1cc(O)c2c(c1)OC(c1ccc(O)c(O)c1)C(O)C2` (stereo not drawn) [Catechine], in the experiment on MAO-B, the Inhibition type entry is “Mixed” and the IC50 is 88.6 µM.
`Cc1cc(O)c2c(c1)C(=O)c1cc(O)cc(O)c1C2=O` [Emodin]: in the experiment on MAO-B, the Inhibition type entry was “Mixed”, the IC50 was 35.4 µM and the Ki was 15.1 µM.
With `COc1ccc(C(C)=O)c(O)c1` [Paeonol], in the experiment on MAO-B, the Inhibition type result is given as “Competitive”, the IC50 was 42.5 µM and the Ki is 38.2 µM.
For Epicatechine, in the experiment on MAO-B, the Inhibition type entry is listed as “Mixed”, the IC50 is 58.9 µM and the Ki was 21 µM.
For the compound phycocyanobilin [PCB], the “amount lowering apoptosis below the control level” value in the experiment on neurons was “approximately 10 nM”.

The values are drawn from patent publication US9522167B2, “Alphanizomenon flos aquae preparation, extracts and purified components thereof for the treatment of neurological, neurodegenerative and mood disorders” (Nutratec, s.r.l., priority 2006, dated 2016).
